Numbering of substitutions follows the chain as printed.
Tests used:
[1] = biological target: T1, URAT1 K393R mutant (Homo sapiens, UniProt Q96S37, K393R); test: 14C-uric acid uptake assay in transfected HEK293 cells; type: cell-based; details: K393R, HEK293 cells
T1 sequence (Q96S37 1-553 K393R): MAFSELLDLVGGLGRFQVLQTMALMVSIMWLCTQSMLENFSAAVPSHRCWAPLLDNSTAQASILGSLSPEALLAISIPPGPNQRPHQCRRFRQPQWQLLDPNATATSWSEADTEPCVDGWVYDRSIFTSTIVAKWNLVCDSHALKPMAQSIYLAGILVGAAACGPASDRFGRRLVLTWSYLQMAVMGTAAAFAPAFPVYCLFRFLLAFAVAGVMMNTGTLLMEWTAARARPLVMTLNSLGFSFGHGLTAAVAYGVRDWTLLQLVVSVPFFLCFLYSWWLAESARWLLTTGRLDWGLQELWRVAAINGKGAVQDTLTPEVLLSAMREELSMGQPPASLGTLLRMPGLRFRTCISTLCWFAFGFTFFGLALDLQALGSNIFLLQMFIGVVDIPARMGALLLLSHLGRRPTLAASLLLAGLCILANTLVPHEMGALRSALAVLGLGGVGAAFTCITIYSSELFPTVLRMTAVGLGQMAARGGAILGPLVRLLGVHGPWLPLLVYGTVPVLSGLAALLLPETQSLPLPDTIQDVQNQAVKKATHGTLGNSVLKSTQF

[2] = biological target: T2, URAT1 K393D mutant (Homo sapiens, UniProt Q96S37, K393D); test: as above; type: cell-based; details: K393D, HEK293 cells
T2 sequence (Q96S37 1-553 K393D): T1 sequence (Q96S37 1-553 K393R) with R393D

In the case of O=c1[nH]c(=O)c2[nH]c(=O)[nH]c2[nH]1 [uric acid], the “14C-uric acid transport compared with WT” value [1] is reported as “no reduction” and the “14C-urate transport capacity lost compared with WT” value [2] is reported as 70–80%.

Reference: publication PMC9521027 (ACS Omega, 2022)
